Measurements published in patent US20070166547A1, “Use of a layer consisting of hydrophobic linear, or two-dimensional polycyclic aromatics as a barrier layer or an encapsulation and electric components constructed with a layer of this type and comprising organic polymers” (priority 2003, published 2007).
Like-named read-outs stand apart in the source and are kept apart here.

Columns and labels:
[1] = system: adenosine-sensitive receptors of erythrocytes; assay: Chemiluminescence study of bonding to erythrocytes and competition with adenosine; format: binding, mice of line BALB/c; details: 37° C. vs 4° C.; 10^−7 to 10^−5 M
Method: The interaction of compounds 2, 15, 21, 37 according to the invention with adenosine-sensitive receptors of erythrocytes of female mice of line BALB/c of an age of 8-12 months was investigated.
The dependence of the chemiluminescence intensity of the compounds according to the invention in an alkaline solution of 0.1N NaOH was determined in the presence of hydrogen peroxide being an initiator of chemiluminescence. The chemiluminescence was studied using the <<LKB>> chemiluminometer.
The erythrocytes of peripheral blood of the mice at first were washed three times by a normal physiological solution with centrifuging and then diluted in the Henks solution without glucose by 10 volumes of distilled water immediately used in the experiment.
At the first stage of the experiments the washed erythrocytes were incubated at a temperature of 37° C. or at 4° C. with solutions of the compounds according to the invention at a concentration of 10^−7 to 10^−5 M for 5-30 minutes, then washed by a normal physiological solution with repeated centrifuging in the cold. The obtained suspension of erythrocytes with the bound compounds according to the invention was placed in 0.1N solution of NaOH with addition of hydrogen peroxide at a final concentration of 10^−7 M. The chemiluminescence intensity was measured. A suspension of erythrocytes without compounds according to the invention was used as a control medium.
At the second stage of the experiments the washed erythrocytes were incubated at a temperature of 37° C. with solutions of the compounds according to the invention at a concentration of 10^−11 to 10^−8M during
5-30 minutes, then washed twice with a normal physiological solution by centrifuging in the cold, the obtained suspension was mixed with an adenosine solution at a concentration of 10^−6 to 10^−4 and incubated for 15 minutes, then washed twice with a normal physiological solution with centrifuging in the cold. The obtained suspension of erythrocytes with the compounds according to the invention was placed in 0.1N solution of NaOH with addition of hydrogen peroxide in the final concentration of 10^−7 M. The chemiluminescence intensity was measured.

[2] = Chronic toxicity, rectal suppositories: indexes of peripheral blood; details: male rats; for Basophiles / Juveniles: 1 month/2 months (one value given)
Method: (§1) The experiments were conducted on inbred rats. The experimental animals were selected in groups by a method of random sampling taking into account the body mass as a determining index; 24 males or 24 females for one preparation from compounds 2, 15, 23, 34, 37 investigated in one dose.
(§2) Two doses of preparations used in the experiments: 50 mg/kg and 500 mg/kg. Before the administration, the suppositories were softened by heating in a glass water bath at a temperature of 38-39° C., the soft mass was collected in tuberculin syringe in a volume of 1 ml, a needle with oliva was attached to the syringe, and the preparatory mass was introduced into the rectum of the animal for a depth of 1.5-2.0 cm. The animals of the control group were administered with sterile medical liquid paraffin in a volume corresponding to the volume of the investigated suppository. A complete course of administration of drugs to the animals was two months. A complex of laboratory diagnostic investigations was carried out one month after the beginning of the administration of the preparation to the animal—in a middle of the course (8 animals), two months after ending the course (8 animals) and three months after ending the recovery period of one month (8 animals). The mass of the body of the rats in the first month of administration of the preparation was determined weekly, and then once in two weeks. On the basis of the dynamics of an index of the mass of the animal body, the volume of preparation being administered was corrected taking into account the test dose.

[3] = rat, in vivo
Method: as §1, §2

[4] = Polarographic study of electrochemical reduction (electrochemical activity); format: physicochemical; details: for i, mkA (polarographic wave current) / −E1/2, V (half-wave potential vs SCE): 37° C., forward trace, average for the group; for i, mkA (polarographic wave current): 9·10^−4 M
How it was run: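 DC polarography at 37 °C on a dropping mercury electrode (0.5 s drop) against SCE with a Pt auxiliary electrode. Compounds at 9·10^−4 M in N2-purged 2.0% NaCl at pH 7.0–7.6, scanned 0 to −0.5 V at 10.0 mV/s. E1/2 and ilim were determined graphically; electron number was derived by Heyrovsky–Ilkovič analysis.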

[5] = suppositories 50 mg/kg, 1 month
[6] = suppositories 50 mg/kg, 2 months
[7] = suppositories 500 mg/kg, 1 month
[8] = suppositories 500 mg/kg, 2 months

Structure (SMILES): Nc1ccnc2c(=O)n([C@@H]3O[C@H](CO)[C@@H](O)[C@H]3O)[nH]c(=O)c12 [Compound 2, 4-amino-7-(β-D-ribofuranosile)pyrido[2,3-d]-6H-pyridazine-5,8-dione]
- bond with the erythrocytes: dependence on incubation temperature [1]: does not depend on the temperature
- Average volume of erythrocytes [2, 5]: 83.4 ± 1.4 Mkm^3
- Coagulation, time [2, 5]: 145 ± 16 s
- Eosinophiles [2, 5]: 3.4 ± 0.6%
- Erythrocytes [2, 5]: 5.60 ± 2 mln/mm^3
- Haematocrite [2, 5]: 47.8 ± 1.3%
- Hemoglobin [2, 5]: 10.5 ± 0.1 mmol/L
- Leukocyte [2, 5]: 16.0 ± 1.4 thousand/mm^3
- REE [2, 5]: 1.9 ± 0.3 mm/h
- Reticulocytes [2, 5]: 2.8 ± 0.2/2.8 ± 0.2%
- Stab neutrophil [2, 5]: 0.8 ± 0.3%
- Thrombocytes [2, 5]: 659 ± 26
- Basophiles ([2]; suppositories 50 mg/kg): 0%
- Juveniles ([2]; suppositories 50 mg/kg): 0%
- Average volume of erythrocytes [2, 6]: 77.9 ± 2.1 Mkm^3
- Coagulation, time [2, 6]: 322 ± 18 s
- Eosinophiles [2, 6]: 4.2 ± 0.8%
- Erythrocytes [2, 6]: 6.1 ± 0.1 mln/mm^3
- Haematocrite [2, 6]: 47.9 ± 1.5%
- Hemoglobin [2, 6]: 11.1 ± 0.1 mmol/L
- Leukocyte [2, 6]: 19.3 ± 1.6 thousand/mm^3
- REE [2, 6]: 1.7 ± 0.1 mm/h
- Reticulocytes [2, 6]: 2.8 ± 0.2/2.8 ± 0.2%
- Stab neutrophil [2, 6]: 1.7 ± 0.3%
- Thrombocytes [2, 6]: 566 ± 20
- Average volume of erythrocytes [2, 7]: 85.2 ± 1.2 Mkm^3
- Coagulation, time [2, 7]: 149 ± 11 s
- Eosinophiles [2, 7]: 3.2 ± 0.9%
- Erythrocytes [2, 7]: 5.6 ± 0.1 mln/mm^3
- Haematocrite [2, 7]: 47.5 ± 1.6%
- Hemoglobin [2, 7]: 10.6 ± 0.1 mmol/L
- Leukocyte [2, 7]: 15.6 ± 0.8 thousand/mm^3
- REE [2, 7]: 2.1 ± 0.3 mm/h
- Reticulocytes [2, 7]: 2.9 ± 0.3%
- Stab neutrophil [2, 7]: 0.9 ± 0.2%
- Thrombocytes [2, 7]: 681 ± 26
- Basophiles ([2]; suppositories 500 mg/kg): 0%
- Juveniles ([2]; suppositories 500 mg/kg): 0%
- Average volume of erythrocytes [2, 8]: 72.0 ± 2.5 Mkm^3
- Coagulation, time [2, 8]: 305 ± 13 s
- Eosinophiles [2, 8]: 4.8 ± 1.6%
- Erythrocytes [2, 8]: 6.5 ± 0.1 mln/mm^3
- Haematocrite [2, 8]: 50.3 ± 2.0%
- Hemoglobin [2, 8]: 12.3 ± 0.3 mmol/L
- Leukocyte [2, 8]: 18.6 ± 1.9 thousand/mm^3
- REE [2, 8]: 1.9 ± 0.1 mm/h
- Reticulocytes [2, 8]: 3.5 ± 0.2%
- Stab neutrophil [2, 8]: 1.1 ± 0.3%
- Thrombocytes [2, 8]: 583 ± 25

Structure (SMILES): Nc1cccc2c(=O)[nH][nH]c(=O)c12.[Na] [Compound 15, sodium salt of 5-amino-benzo[d]-3H-pyridazine-1,4-dione]
- bond with the erythrocytes: dependence on incubation temperature [1]: does not depend on the temperature
- Bilirubin (index of urine) ([3]; 50 mg/kg): <5 Mkmol/l
- Glucose (index of urine) ([3]; 50 mg/kg): <6 mmol/L
- Ketone bodies (index of urine) ([3]; 50 mg/kg): <1 mmol/L
- Potassium (index of urine) ([3]; 50 mg/kg): 5.28 ± 1.5 g/L
- Protein (index of urine) ([3]; 50 mg/kg): 0.71 ± 0.274 g/L
- Sodium (index of urine) ([3]; 50 mg/kg): 1.2 ± 0.4 g/L
- Urea (index of urine) ([3]; 50 mg/kg): 413 ± 128 mmol/L
- Urobilinogen (index of urine) ([3]; 50 mg/kg): <17 Mkmol/l
- pH (index of urine) ([3]; 50 mg/kg): 6.3 ± 0.4
- Bilirubin (index of urine) ([3]; 500 mg/kg): <5 Mkmol/l
- Glucose (index of urine) ([3]; 500 mg/kg): <6 mmol/L
- Ketone bodies (index of urine) ([3]; 500 mg/kg): <1 mmol/L
- Potassium (index of urine) ([3]; 500 mg/kg): 6.13 ± 1.6 g/L
- Protein (index of urine) ([3]; 500 mg/kg): 0.87 ± 0.24 g/L
- Sodium (index of urine) ([3]; 500 mg/kg): 0.64 ± 0.4 g/L
- Urea (index of urine) ([3]; 500 mg/kg): 485 ± 131 mmol/L
- Urobilinogen (index of urine) ([3]; 500 mg/kg): <17 Mkmol/l
- pH (index of urine) ([3]; 500 mg/kg): 6.2 ± 0.3
- number of electrons participating in the reduction ([4]; calculated with the Geirovsky-Ilkovich equation): 4.09
- i, mkA (polarographic wave current) ([4]; pH 7.0): 0.23 ± 0.03 mkA
- −E1/2, V (half-wave potential vs SCE) ([4]; pH 7.0): 0.092 ± 0.02 V
- i, mkA (polarographic wave current) ([4]; pH 7.2): 0.30 ± 0.01 mkA
- −E1/2, V (half-wave potential vs SCE) ([4]; pH 7.2): 0.09 ± 0.01 V
- i, mkA (polarographic wave current) ([4]; pH 7.4): 0.29 ± 0.02 mkA
- −E1/2, V (half-wave potential vs SCE) ([4]; pH 7.4): 0.092 ± 0.02 V
- i, mkA (polarographic wave current) ([4]; pH 7.6): 0.31 ± 0.02 mkA
- −E1/2, V (half-wave potential vs SCE) ([4]; pH 7.6): 0.09 ± 0.01 V
- half-wave potential more positive on reverse stroke than on forward stroke ([4]; reverse stroke vs forward stroke): 30.0 mV

Structure (SMILES): O=c1[nH][nH]c(=O)c2c(Br)ncnc12.[K] [Compound 37, potassium salt of 4-bromine-pyrimido[4,5-D]-6H-pyridazine-5,8-dione]
- bond with the erythrocytes: dependence on incubation temperature [1]: does not depend on the temperature
- Bilirubin (index of urine) ([3]; 50 mg/kg): <5 Mkmol/l
- Glucose (index of urine) ([3]; 50 mg/kg): <5 mmol/L
- Ketone bodies (index of urine) ([3]; 50 mg/kg): <1 mmol/L
- Potassium (index of urine) ([3]; 50 mg/kg): 6.12 ± 1.4 g/L
- Protein (index of urine) ([3]; 50 mg/kg): 0.70 ± 0.19 g/L
- Sodium (index of urine) ([3]; 50 mg/kg): 1.4 ± 0.2 g/L
- Urea (index of urine) ([3]; 50 mg/kg): 427 ± 137 mmol/L
- Urobilinogen (index of urine) ([3]; 50 mg/kg): <15 Mkmol/l
- pH (index of urine) ([3]; 50 mg/kg): 6.4 ± 0.4
- Bilirubin (index of urine) ([3]; 500 mg/kg): <5 Mkmol/l
- Glucose (index of urine) ([3]; 500 mg/kg): <5 mmol/L
- Ketone bodies (index of urine) ([3]; 500 mg/kg): <1 mmol/L
- Potassium (index of urine) ([3]; 500 mg/kg): 6.44 ± 1.3 g/L
- Protein (index of urine) ([3]; 500 mg/kg): 0.72 ± 0.14 g/L
- Sodium (index of urine) ([3]; 500 mg/kg): 0.88 ± 0.4 g/L
- Urea (index of urine) ([3]; 500 mg/kg): 489 ± 152 mmol/L
- Urobilinogen (index of urine) ([3]; 500 mg/kg): <15 Mkmol/l
- pH (index of urine) ([3]; 500 mg/kg): 6.2 ± 0.3
